Assay results: US7432051B2, “Erythropoietin and erythropoietin receptor expression in human cancer” (The Henry M. Jackson Foundation for the Advancement of …, priority 2000, dated 2008)

Experiments:
U251 cells [1] = assay: Serum withdrawal cell survival; type: cell-based, human; conditions: inhibitor added at change to serum-free media, forty-eight hours
Description: (§1) U251 cells were grown in 96-well culture dishes to approximately 85% confluence. Serum was withdrawn overnight and 10 μM Cisplatin was added for twenty-four hours. […] Control groups underwent similar serum withdrawal but no Cisplatin exposure. Where indicated rhEpo or Epoetin-alfa was added thirty minutes prior to the addition of cisplatin. Serum withdrawal studies involved assessment of cell survival forty-eight hours following change to serum-free media. […] Where indicated, Epoetin-alfa, tyrosine kinase inhibitors or PI3K inhibitors were added at the time of change to serum-free media. The Student's T-test was used to determine statistically significant differences between treatment groups.

U251 cells [2] = assay: Hypoxia-sensing response (HIF-1α immunoblot, HIF-1 gelshift, RT-PCR and Western blot for Epo/EpoR); type: cell-based, human; conditions: 150 μM DFX, six-hour treatment
Description: Human glioma cell lines (ATCC) and normal human astrocytes (Clonetics) were cultured in Eagle's MEM medium supplemented with 10% fetal bovine serum, and 1% (v/v) penicillin/streptomycin. The cells were grown to 90% confluence in 10 cm culture dishes. For hypoxia treatment, the culture dishes were sealed in modulator incubator chamber, flushed with gas containing 1% oxygen, 5% carbon dioxide, 94% nitrogen for five minutes, and incubated at 37° C. for four to six hours. For desferrioxamine (DFX) treatment, the cells were cultured with same medium containing […] DFX and incubated in cell culture incubator. Paraffin sections (5 μm) of the human GBMs were prepared and stained by immunohistochemistry methods as described previously (Acs et al. (2001) Cancer Res. 61, 3561-3565).
(§2) After the treatments to the cell culture dishes described in Example 10, the cells were washed once with 10 ml cold Dulbecco's phosphate-buffered saline (PBS), scraped into 1.5 ml of PBS on ice, and pelleted by centrifugation at 2,000 rpm for three minutes at 4° C. Cell pellets were washed once with 5 packed cell volumes of buffer A (10 mM Tris-HCl (pH 7.5), 1.5 mM magnesium chloride, 10 mM KCl), freshly supplemented with Complete, EDTA-free Protease Inhibitor Cocktail (Roche) and 2 mM dithiothreitol (DTT)), and resuspended in four packed cell volumes of buffer A. After incubation on ice for 10 min, cell suspension was homogenized with thirty strokes in a glass douncer (Wheaton) with type-b pestle. Nuclei were pelleted at 1,000 rpm for ten minutes and resuspended in four packed nuclear volumes of buffer C (20 mM Tris-HCl (pH 7.5), 0.42 M KCl, 1.5 mM magnesium chloride, 20% glycerol, freshly supplemented with Complete, EDTA-free Protease Inhibitor Cocktail (Roche) and 2 mM DTT), and rotated for thirty minutes at 4° C. After centrifugation at 1,400 rpm for thirty minutes, the nuclear extracts were aliquoted and stored at −80° C. Protein concentration was determined by the method of Bradford with a commercial kit (Bio-Rad) using bovine serum albumin as standard. HIF-1α protein was detected by immunoblot analysis. Twenty five to thirty μg of nuclear extracts were boiled for five minutes in 2× denaturing buffer, and loaded onto SDS-7% polyacrylamide gels. After transfer, membranes were blocked with 5% milk in TBST (10 mM Tris-HCl, 150 mM NaCl, 0.1% Tween, pH 7.8) for one and a half hours at room temperature and subsequently incubated with mouse monoclonal HIF-1α antibody (Transduction Labs) for two hours. The membranes were washed with TBST three times and incubated with horseradish peroxidase-conjugated secondary antibody. Then, the membranes were washed three times with TBST and analyzed by enhanced chemiluminescence (Pierce). Analysis of EpoR and phosphotyrosine immunoreactivity was performed as reported previously (Acs et al. (2001) Cancer Res. 61, 3561-3565).
Oligonucleotide probe was generated by 5′ end labeling of the sense strand with gamma-[^32P]ATP (Dupont-NEN) and T4 polynucleotide kinase (Gibco-BRL), annealing to a ten-fold excess of antisense strand, and purification by using NucTrap Probe Purification Column (Stratagene). Binding reactions were carried out in a total volume of 20 μl containing 7.0 μg of nuclear extract and 0.2 μg of calf thymus DNA in buffer Z (20 mM Tris-HCl (pH 7.5), 0.1 M KCl, 0.2 mM EDTA, 20% glycerol, freshly supplemented with 2 mM DTT, 0.4 mM PMSF and 1 mM Na3PO4). […]

U251 cells [3] = assay: Chemotherapeutic drug toxicity, cell survival by MTT assay; type: cell-based, human; conditions: serum-free media
Description: as §1

BT-549 cells = assay: 3H-thymidine incorporation assay of DNA synthesis; type: cell-based, human
Description: (§3) To determine whether Epo exerts trophic effects on breast cancer cell lines, the effect of exogenously added Epo on DNA synthesis was examined in MCF-7 and BT-549 cells. DNA synthesis was measured using a ^3H-thymidine incorporation assay. Breast cancer cells plated in six well plates in one ml DMEM supplemented with 20% fetal bovine serum per well were allowed to incubate for sixteen hours. Cells were switched to one ml phenol-free DMEM at the time of treatments. recombinant human Epo (rhEpo) (10 units), or either anti-Epo or anti-EpoR antibodies ([…]) was then added directly to the medium and the cells cultured for another sixteen hours. Thymidine labeling was performed by adding one […] (NEN Life Sciences) for one hour and DNA associated counts were then determined by liquid scintillation as described (Assandri et al. (1999) J. Physiol. 516, 343-352).

MCF-7 cells [4] = assay: 3H-thymidine incorporation assay of DNA synthesis; type: cell-based, human
Description: as §3

MCF-7 cells [5] = assay: Western blot of phosphotyrosine containing proteins; type: cell-based, human; conditions: five minute incubation; 250 units/ml rhEpo or 10 μM Epo mimetic peptide
U251 cells [6] = assay: Western blot of EpoR associated signaling (tyrosine phosphorylation, Jak-2, STAT-5, Akt); type: cell-based, human
Description: as §2
Using the Western blotting techniques described in Example 11 above, the immunoreactive EpoR expressed in human gliomas was further tested to see if it was functional. Cultured U251 cells were stimulated with recombinant human erythropoietin. […] Tyrosine phosphorylation could also be elicited by an Epo-mimetic peptide (EMP) and by Epoetin-alfa, the clinically used form of Epo (FIG. 11B). Using phospho-specific antibodies, we also detected rhEpo stimulated Jak-2 and STAT-5 tyrosine phosphorylation as well as phosphorylation of Akt (FIG. 12C).

[7] = test system: cell lines derived from a wide range of tumors including two breast cancer cell lines; conditions: in particular low doses of erythropoietin; cited from earlier work
[8] = 10 units/ml exogenous rhEpo, p<0.01
[9] = rhEpo (10 units) in one ml medium, sixteen hours, p<0.01

O=c1c(-c2ccc(O)cc2)coc2cc(O)cc(O)c12 [Genistein, reference compound]
effect on the protective effect of Epoetin-alfa (U251 cells [1]): blocked

CC(=O)N(O)CCCCCNC(=O)CCC(=O)N(O)CCCCCNC(=O)CCC(=O)N(O)CCCCCN [DFX, desferrioximine]
Epo mRNA expression (RT-PCR) (U251 cells [2]): prominent induction | EpoR mRNA expression (RT-PCR) (U251 cells [2]): not induced | HIF-1 gelshift activity (U251 cells [2]): dramatically upregulating | immunoreactive EpoR protein levels (U251 cells [2]): enhanced | level of HIF-1α protein (U251 cells [2]): dramatically upregulating

N.N.[Cl][Pt][Cl] [Cisplatin, reference compound]
cells killed (cell death) (U251 cells [3]; 10 μM Cisplatin, overnight / twenty-four hours): approximately 80% | survival fraction (U251 cells [3]; Cisplatin overnight): 0.2

rhEpo: recombinant human Epo (rhEpo), R & D systems
enhancement of 3H-thymidine incorporation (BT-549 cells; [8]): about 25% | 3H-thymidine incorporation, effect in words (BT-549 cells; rhEpo 100 units/ml (FIG. 2)): enhanced | potentiation of DNA synthesis (BT-549 cells; [9]): approximately 20% | enhancement of 3H-thymidine incorporation (MCF-7 cells [4]; [8]): about 25% | 3H-thymidine incorporation, effect in words (MCF-7 cells [4]; rhEpo 100 units/ml (FIG. 2)): enhanced | potentiation of DNA synthesis (MCF-7 cells [4]; [9]): approximately 20% | levels of phosphotyrosine containing proteins versus basal (MCF-7 cells [5]): markedly enhanced | Jak-2 tyrosine phosphorylation (U251 cells [6]; phospho-specific antibodies): stimulated | STAT-5 tyrosine phosphorylation (U251 cells [6]; phospho-specific antibodies): stimulated | phosphorylation of the PI3K substrate Akt (U251 cells [6]; phospho-specific antibodies): stimulated | tyrosine phosphorylation in several proteins (U251 cells [6]; serum free media, rhEpo 10 U/ml single dose, EMP and Epoetin-alfa thirty minute treatments): prominent, rapid, and long lasting activation | duration of tyrosine phosphorylation (U251 cells [6]; single dose 10 U/ml rhEpo): more than two hours | onset of tyrosine phosphorylation (U251 cells [6]; single dose 10 U/ml rhEpo): within one minute | stimulation of cancer cell proliferation [7]: no significant stimulation
